Results taken from patent US20260091123A1, “COMBINATION OF ANTI-B7-H3 ANTIBODY-DRUG CONJUGATE AND ATR INHIBITOR OR ATM INHIBITOR” (DAIICHI SANKYO COMPANY, LIMITED, priority 2023, published 2026).

How the values were obtained:
[1] = system: human prostate carcinoma epithelial cell line, 22Rv1; assay: In vivo antitumor activity, combination with ATM inhibitor, 22Rv1 xenograft (Test Example 5); design: species or system mice; conditions: day 29
Procedure: All animal experiments were performed in accordance with the in-house guidelines of the Institutional Animal Care and Use Committee of Daiichi Sankyo Co., Ltd. The human prostate carcinoma epithelial cell line, 22Rv1 was purchased from American Type Culture Collection (ATCC) and cultured in RPMI 1640 Medium (ATCC modification) (Thermo Fisher Scientific) supplemented with 10% heat-inactivated fetal bovine serum (FBS, cytiva) at 37° C. in a humidified 5% CO2 atmosphere. On the day of cancer cell inoculation, 22Rv1 cells were trypsinized, washed with D-PBS, and then resuspended in D-PBS at a concentration of 5×10^7 cells/mL. Castrated male NSG mice (NOD.Cg-Prkdc^scid Il2rg^tm1Wj1/SzJ, 6 weeks of age, The Jackson Laboratory Japan, Inc.) were subcutaneously inoculated with 22Rv1 cells (5×10^6 cells/mouse) into the right flank. […] Vehicle control • Group 2: AZD1390 20 mg/kg • Group 3: […] A (10 mmol/L histidine buffer [pH5.9] containing 9% sucrose and 0.02% polysorbate 20) to prepare a 0.3 mg/mL dosing solution. To prepare a 2.0 mg/mL dosing solution, AZD1390 was dissolved in Soln. […] The volume of each dosing solution to be administered was calculated from the individual body weight measured on the day of dosing. […] Tumor length and tumor width were measured with a digital caliper. Tumor volume and tumor growth inhibition (TGI) were calculated by the following formulas: […] […]

[2] = system: human prostate carcinoma epithelial cell line, 22Rv1; assay: In vivo antitumor activity, combination with ATR inhibitor, 22Rv1 xenograft (Test Example 4); design: species or system mice; conditions: day 24
Procedure: All animal experiments were performed in accordance with the in-house guidelines of the Institutional Animal Care and Use Committee of Daiichi Sankyo Co., Ltd. […] Vehicle control • Group 2: AZD6738 25 mg/kg • Group 3: […] A (10 mmol/L histidine buffer [pH5.9] containing 9% sucrose and 0.02% polysorbate 20) to prepare a 0.3 mg/mL dosing solution. […] Then, propylene glycol (40% [v/v] of total volume of the dosing solution) was added to the solution. After mixing with a magnetic stirrer well, water for injection (50% [v/v] of total volume of the dosing solution) was added to the solution, and then the solution was further mixed well with a magnetic stirrer. The volume of each dosing solution to be administered was calculated based on the individual body weight measured on the day of dosing. Soln. […] Soln. […] Tumor length and tumor width were measured with a digital caliper. Tumor volume and tumor growth inhibition (TGI) were calculated by the following formulas: […] Dunnett's test was used to compare tumor volumes in monotherapy groups with those in the vehicle control and to compare tumor volumes in monotherapy groups with those in the combination group. […] The following calculation of TGI and statistical analyses were performed using data except for the excluded mouse in Group 4.

`CC(C)n1c(=O)n(C)c2cnc3cc(F)c(-c4ccc(OCCCN5CCCCC5)nc4)cc3c21` [AZD1390] was tested, and the “tumor growth inhibition (TGI)” value ([1]; 22Rv1 in castrated male NSG mice, AZD1390 20 mg/kg orally, conjugate (1) 3 mg/kg iv days 0 and 14) was 14% and the “tumor growth / antitumor activity compared with the vehicle control” value ([1]; monotherapies, Dunnett's test) was “no statistically significant difference in antitumor activity”.

`C[C@@H]1COCCN1c1cc(C2([S@](C)(=N)=O)CC2)nc(-c2cc[nH]c3nccc2-3)n1` [AZD6738] was tested, and the “tumor growth inhibition (TGI)” value ([2]; 22Rv1 in castrated male NSG mice, AZD6738 25 mg/kg orally twice a day, conjugate (1) 3 mg/kg iv days 0 and 15) was 29% and the “tumor growth compared with the vehicle control” value ([2]; monotherapies, Dunnett's test) was “significantly inhibited tumor growth”.
